Laboratory results from US20240248078A1, “Compositions For and Methods of Evaluating Gap Junction Formation and Function” (Duke University, priority 2021, published 2024).

Assays:
Type in all cases: cell-based, human
HEK 293FT cells = assay: Flow enabled tracking of connexosomes in HEK 293FT cells (FETCH); details: for homotypic FETCH score (docking): homotypic pairing of fluorescent C-terminal fusion constructs, Q2/(Q1+Q2+Q3); for heterotypic FETCH score when paired with Cx43: co-plated with cells expressing Cx43
Method: FETCH analysis is fundamentally a two-component system. To complete FETCH analysis, replica multi-well plates were transfected with either of the two components being evaluated. The media of transfected wells was changed 16-18 hrs post-transfection and cells were trypsinized and experimental counterparts were combined at ˜20 hrs post-transfection. The entirety of combined samples were then plated onto new, 10 μg/mL Fibronectin coated wells of the same size, resulting in hyperdensity and over confluency. Following co-plating, samples were incubated for ˜20 hr-24 hrs, at which point samples were trypsinized, resuspended in phosphate buffered saline with 10 U/mL DNAse and fixed with paraformaldehyde (f/c of 1.5%). Co-plated samples in 96 well plates were resuspended to a final volume of ˜150 μL, samples from 24-well plates were resuspended to a final volume of ˜600 μL.
Flow cytometry data was collected on either a BD FACSCanto II (2-color experiments and high-throughput 96-well plates; 488 nm and 633 nm lasers), which utilizes the BD FACSDiVa software. Samples were analyzed in two selection gates prior to their fluorescence evaluation. First, presumable HEK cells were identified by evaluating sample forward vs side scatter area. Next, single cells were selected by evaluating cells that maintained a linear correlation of forward scatter height to forward scatter area. Finally, the fluorescence profiles of each sample were generated.
Each FETCH experiment produces “*.fcs” files that contain all the channel data for fluorescence in the sample. The automated pipeline loads these files, extracts FSC-A, SSC-A, and FSC-H. Depending on the machine used, green channel was loaded as 1-A or as FITC-A. For the red channel, both APC-A (RFP670) with PE-A (mApple) can be used or 5-A(RFP670) can be used. Next, the code produces two matrices containing SSC-A with FSC-A, and FSC-A with FSC-H, respectively.
The first gate is drawn on the FSC-A vs SSC-A axes to exclude cellular debris which clusters in the lower left corner and the cells that are saturating the laser (at the max of both axes). On an FSC-A vs SSC-A plot, the cellular debris usually is smoothly transitioning into the population of intact cells, therefore a Gaussian kernel density estimator with the estimator bandwidth selection defined by the Scott's Rule is used to draw contours around the data in SSC-A vs FSC-A matrix. Next, a set of heuristics was used to determine which of the contour lines should be used to define the first gate. Specifically, cellular debris usually clusters below 25000 on both axes, so any contour that includes values at or below is excluded. Similarly, any contour within a 1000 of the maximum value of each axis is also excluded. Of the remaining contours, the largest one is chosen, and an oval equation is fitted to the points defining that contour to attenuate occasional protrusions of the contour that tap into cellular debris population in rare cases. The fitted oval becomes the first gate.
For all the elements inside of the first gate, a second gate was drawn in the axis of FSC-A and FSC-H to exclude non-single cells. For the second gate, a line was fit to all the points. Next, for each point, a norm to the fit line was found and a standard deviation of all such norms was found. Using this standard deviation, a second gate 4 standard deviations away from the fitted line was defined on both sides and excluded all the points outside of this gate.
Upon applying the first two gates, the data was finally plotted with the red fluorophore on the y axis and the green fluorophore on the x axis. If a sample contained more than two fluorophores, then the last gate was drawn for each possible combination. Since some readings are below zero due to fluorescence compensation, all the data points were shifted by the smallest value along both axes and then a natural log of fluorescence levels was taken. […]

HeLa cells = assay: FETCH in HeLa cell line; details: compared with HEK 293FT
Text: (§1) For FETCH to be successful, cells must overexpress Cx-FP constructs to a sufficient degree to promote observable fluorescence exchange.

293 cells = assay: FETCH in 293 cell line; details: compared with HEK 293FT
Text: as §1

Row | Substance | homotypic FETCH score (docking) (HEK 293FT cells) | further results
1 | Cx31.3: human connexin 31.3, C-terminal fluorescent fusion protein | failed to generate a significant homotypic FETCH score | –
2 | Cx31.1: human connexin 31.1 (GJB5), C-terminal fluorescent fusion protein | failed to generate a significant homotypic FETCH score | –
3 | Cx31.9: human connexin 31.9 (GJD3), C-terminal fluorescent fusion protein | failed to generate a significant homotypic FETCH score | –
4 | Cx62: human connexin 62 (GJA10), C-terminal fluorescent fusion protein | failed to generate a significant homotypic FETCH score | –
5 | D190A: random alanine scanning mutation of the Cx43 extracellular loops | retained their ability to homotypically dock | –
6 | Cx43-ELs-Cx26: chimeric construct of the intracellular and transmembrane regions of Cx43 and the ELs of Cx26 | – | FETCH docking when paired with Cx26 (HEK 293FT cells; co-plated with cells expressing Cx26): preferentially docked; heterotypic FETCH score when paired with Cx43 (HEK 293FT cells): not Cx43
7 | Cx32: human connexin 32 (GJB1), C-terminal fluorescent fusion protein | significantly positive | heterotypic FETCH score when paired with Cx43 (HEK 293FT cells): failed to dock
8 | Cx36: human connexin 36 (GJD2), C-terminal fluorescent fusion protein | significantly positive | heterotypic FETCH score when paired with Cx43 (HEK 293FT cells): failed to dock
9 | Cx45: human connexin 45 (GJC1), C-terminal fluorescent fusion protein | significantly positive | heterotypic FETCH score when paired with Cx43 (HEK 293FT cells): positive
10 | Cx43: human connexin 43 (GJA1), expressed as C-terminal fluorescent fusion protein | significantly positive | FETCH score (HeLa cells): substantially lower; FETCH score (293 cells): substantially lower
11 | Cx59: human connexin 59 (GJA9), C-terminal fluorescent fusion protein | failed to generate a significant homotypic FETCH score | –
12 | S182A: random alanine scanning mutation of the Cx43 extracellular loops | retained their ability to homotypically dock | –
13 | Cx50: human connexin 50 (GJA8), C-terminal fluorescent fusion protein | failed to generate a significant homotypic FETCH score | –
14 | Cx46: human connexin 46 (GJA3), C-terminal fluorescent fusion protein | failed to generate a significant homotypic FETCH score | –
